In patent US10005793B2, “Bodipy dyes for biological imaging” (The General Hospital Corporation, priority 2012, dated 2018):

Assays:
[1] = system: MDA-MB-231 pLVX H2B-mCherry cells; assay: Live cell fluorescence imaging after 24 hours treatment; format: cell-based; settings: 24 hours at 10 μM, 1 μM, and 100 nM; FIG. 5
Description: To investigate the impact of dye lipophilicity in the in vivo imaging context, we further treated MD-MBA 231 cells (with an H2B mCherry fluorescent reporter to localize the nucleus) with each compound for 24 hours at 10 μM, 1 μM, and 100 nM. Cells (MDA-MB-231 pLVX H2B-mCherry) lines were cultured using sterile technique in plastic dishes with standard cell-growth media [RPMI 1640 1× (+) phenol red, (+) 10% FBS, (+) 1% Pen-Strep]. Culture incubation during and in between experiments was performed in a sterile incubator (37° C., 5% CO2). All cultures used in imaging studies were confirmed to be mycoplasma-free prior to experimentation using a commercially available detection kit (MycoAlert, Lonza).
This property thereby limits non-specific staining effects that could have a confounding effect small-molecule imaging applications.

MD-MBA 231 cell line = assay: Wash-out experiment, live-cell imaging; format: cell-based; settings: 30 minutes incubation with 10 µM compound, three 30 minute washes; FIG. 6
Description: Further validation of the dyes' low-lipophilicity was achieved via a wash-out experiment with the MD-MBA 231 cell line. In this experiment, we investigated the ease of washing out the mono-alkoxy fluorophores within 30 minutes (e.g., within 15 minutes of the start of incubation).
Two days prior to imaging, cells were seeded at 20,000 cells/well on a 96-well Glass Bottom Microwell plate (MatriPlate, MGB096-1-2-LG-L) treated with 1× Attachment Factor (0.1% gelatin, Gibco). For these experiments, phenol-red free imaging media was used [RPMI 1640 1× (+) 10% FBS]. The day of imaging, each well was incubated for 30 minutes with […] of the title compound suspended in cell imaging media (final DMSO content=0.1%). Subsequently three washes were performed. Each wash consisted of removing spent media, adding fresh imaging media, and incubating the cells for 30 minutes. After the final wash, the media was aspirated, a thin layer of cell imaging media was added, and wells were rapidly imaged.
Live-cell imaging was performed on a Zeiss Axiovert 100M inverted epifluorescence microscope with a 40× objective. Per region of interest, a bright field view was acquired as well as GFP, TexasRed fluorescence channels.

Structure (SMILES) | staining pattern of live cells [1] | staining after wash-out (MD-MBA 231 cell line)
CO[B-]1(F)n2c(C)cc(C)c2C(C)=C2C(C)=CC(C)=[N+]21 (stereo not shown) [AMC1028, 5-fluoro-5-methoxy-1,3,7,9,10-pentamethyl-5H-dipyrrolo[1,2-c:2′,1′-f][1,3,2]diazaborinin-4-ium-5-uide] | diffuse fluorescent signal | –
CC1=CC(C)=[N+]2C1=C(C)c1c(C)cc(C)n1[B-]2(F)OCCO (stereo not shown) [AMC1029, 5-fluoro-5-(2-hydroxyethoxy)-1,3,7,9,10-pentamethyl-5H-dipyrrolo[1,2-c:2′,1′-f][1,3,2]diazaborinin-4-ium-5-uide] | diffuse fluorescent signal | –
CC1=CC(C)=[N+]2C1=C(C)c1c(C)cc(C)n1[B-]2(F)F [AMC1094, 1,3,5,7,8-Pentamethyl BODIPY] | significant non-specific staining of cellular compartments | persistent non-specific staining
